Molecular target: T1, Nav1.7 (or SCN9A) channel; HEK cells stably transfected with hSCN9A (Homo sapiens, UniProt Q15858)
T1 construct: expressed in transfected cells
Assay: Nav1.7 block, PatchXpress 7000 automated whole-cell voltage clamp, estimated IC50 (EIC50)
Assay type: cell-based
Conditions: estimated IC50, PatchXpress platform

[1] = hSCN9A HEK cells, Examples 283-814

T1 sequence (Q15858 whole entry): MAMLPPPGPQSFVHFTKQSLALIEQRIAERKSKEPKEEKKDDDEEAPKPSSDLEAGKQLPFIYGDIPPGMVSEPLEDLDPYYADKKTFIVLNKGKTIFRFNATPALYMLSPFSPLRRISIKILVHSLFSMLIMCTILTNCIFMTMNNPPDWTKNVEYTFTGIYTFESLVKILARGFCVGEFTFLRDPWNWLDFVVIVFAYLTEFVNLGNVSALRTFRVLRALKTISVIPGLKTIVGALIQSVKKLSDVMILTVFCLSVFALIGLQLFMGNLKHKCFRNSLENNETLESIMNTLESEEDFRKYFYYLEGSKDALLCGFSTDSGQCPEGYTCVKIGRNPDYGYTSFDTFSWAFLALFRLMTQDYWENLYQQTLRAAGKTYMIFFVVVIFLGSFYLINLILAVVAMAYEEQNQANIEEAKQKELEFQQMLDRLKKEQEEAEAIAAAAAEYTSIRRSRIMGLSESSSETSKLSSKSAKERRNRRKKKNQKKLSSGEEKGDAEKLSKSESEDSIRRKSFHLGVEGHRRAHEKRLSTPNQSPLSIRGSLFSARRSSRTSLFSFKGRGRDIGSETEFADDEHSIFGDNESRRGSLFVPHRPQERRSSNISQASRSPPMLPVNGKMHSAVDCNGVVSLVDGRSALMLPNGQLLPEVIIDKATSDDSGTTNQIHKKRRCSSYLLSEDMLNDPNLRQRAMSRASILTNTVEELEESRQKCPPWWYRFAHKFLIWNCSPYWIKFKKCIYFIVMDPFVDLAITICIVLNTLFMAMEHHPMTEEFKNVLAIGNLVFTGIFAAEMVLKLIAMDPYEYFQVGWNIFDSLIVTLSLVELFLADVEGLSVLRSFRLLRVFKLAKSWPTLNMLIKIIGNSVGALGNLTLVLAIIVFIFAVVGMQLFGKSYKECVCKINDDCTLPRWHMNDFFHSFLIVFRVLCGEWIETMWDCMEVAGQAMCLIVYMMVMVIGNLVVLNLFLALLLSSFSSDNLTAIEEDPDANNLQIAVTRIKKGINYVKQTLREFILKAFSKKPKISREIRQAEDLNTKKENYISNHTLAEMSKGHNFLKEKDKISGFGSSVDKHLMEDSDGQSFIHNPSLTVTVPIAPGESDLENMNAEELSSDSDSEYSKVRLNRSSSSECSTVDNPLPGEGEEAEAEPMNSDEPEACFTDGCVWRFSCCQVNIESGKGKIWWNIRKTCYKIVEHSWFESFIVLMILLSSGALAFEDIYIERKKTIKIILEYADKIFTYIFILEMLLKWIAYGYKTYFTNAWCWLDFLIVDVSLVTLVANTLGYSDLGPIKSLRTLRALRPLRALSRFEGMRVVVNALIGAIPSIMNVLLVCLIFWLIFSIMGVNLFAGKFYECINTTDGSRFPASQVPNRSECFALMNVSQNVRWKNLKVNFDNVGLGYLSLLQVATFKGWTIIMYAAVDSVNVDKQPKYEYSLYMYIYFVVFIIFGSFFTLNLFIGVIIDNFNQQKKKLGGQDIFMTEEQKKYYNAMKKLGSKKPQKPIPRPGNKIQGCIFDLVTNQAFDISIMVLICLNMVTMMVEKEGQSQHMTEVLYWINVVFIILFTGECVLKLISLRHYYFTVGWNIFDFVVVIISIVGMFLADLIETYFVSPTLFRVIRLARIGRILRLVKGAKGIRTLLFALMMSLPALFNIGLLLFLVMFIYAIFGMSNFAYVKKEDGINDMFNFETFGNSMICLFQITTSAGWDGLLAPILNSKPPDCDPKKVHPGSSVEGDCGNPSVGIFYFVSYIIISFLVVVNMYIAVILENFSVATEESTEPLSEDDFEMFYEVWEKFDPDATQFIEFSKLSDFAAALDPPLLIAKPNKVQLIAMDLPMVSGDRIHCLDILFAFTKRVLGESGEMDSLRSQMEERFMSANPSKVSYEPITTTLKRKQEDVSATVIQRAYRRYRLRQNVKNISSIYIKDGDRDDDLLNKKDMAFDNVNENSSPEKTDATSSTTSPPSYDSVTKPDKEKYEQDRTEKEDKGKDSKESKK

| IC50 [1] [nM] | SMILES | also measured |
| --- | --- | --- |
| 240 | N#Cc1cc(S(=O)(=O)Nc2cscn2)ccc1Oc1ccc(Cl)cc1-c1cn[nH]c1 [Example 767, 4-[4-chloro-2-(1H-pyrazol-4-yl)phenoxy]-3-cyano-N-1,3-thiazol-4-ylbenzenesulfonamide] |  |
|  | Cc1nsc(NS(=O)(=O)c2cc(Cl)c(Oc3ccc(Cl)cc3-c3c[nH]nc3N)cc2F)n1 [Example 872, 4-[2-(3-amino-1H-pyrazol-4-yl)-4-chlorophenoxy]-5-chloro-2-fluoro-N-(3-methyl-1,2,4-thiadiazol-5-yl)benzenesulfonamide] | IC50 (hSCN9A HEK cells, Examples 815-1040): 12 nM |
| 1.2 | O=S(=O)(Nc1ncns1)c1cc(F)c(Oc2ccc(C(F)(F)F)cc2-c2cn[nH]c2)cc1F [Example 790, 2,5-difluoro-4-[2-(1H-pyrazol-4-yl)-4-(trifluoromethyl)phenoxy]-N-1,2,4-thiadiazol-5-ylbenzenesulfonamide] |  |
|  | O=S(=O)(Nc1ncns1)c1ccc(Oc2cc(C(F)(F)F)nn2-c2ccccc2F)c(F)c1 [Example 255, 3-fluoro-4-[2-(2-fluoro-phenyl)-5-trifluoromethyl-2H-pyrazol-3-yloxy]-N-1,2,4-thiadiazol-5-yl-benzenesulfonamide] | IC50 (hSCN9A HEK cells held at V1/2 of inactivation): 490 nM |
| 53 | Cn1nccc1-c1cc(Cl)ccc1Oc1ccc(S(=O)(=O)Nc2ccncn2)cc1Cl [Example 668, 3-Chloro-4-[4-chloro-2-(1-methyl-1H-pyrazol-5-yl)phenoxy]-N-pyrimidin-4-ylbenzenesulfonamide] |  |
| 40 | N#Cc1cc(S(=O)(=O)Nc2nccs2)ccc1Oc1cc(Cl)ccc1-c1ccn[nH]1 [Example 711, 4-[5-chloro-2-(1H-pyrazol-5-yl)phenoxy]-3-cyano-N-1,3-thiazol-2-ylbenzenesulfonamide] |  |

Reference: patent US8541588B2, “Sulfonamide derivatives” (Pfizer Limited, priority 2009, dated 2013)
